According to patent publication US7785850B2, “Heterologus expression of trypanothione reductase from Leishmania donovani in a prokaryotic system” (priority 2004, dated 2010):

Legend:
[1] = target: T1, recombinant Leishmania donovani Trypanothione Reductase (LDdTR) (Leishmania donovani, UniProt P39050, S2A); experiment: biochemical
T1 construct: GST (pET-41a vector fusion) (N, cleaved yes); made in house; host or cells: E. coli BL21(DE3), pET41a (clone LddTRpET41aDE3)
Protocol: Trypanothione reductase activity was routinely assayed spectrophotometrically at 340 nm, as previously described (25). The reaction mixture contained 100 mM HEPES pH 7.8, 20 μM EDTA, 80 μM NADPH and 50 μM TS2. The reaction was allowed to proceed for 5 min. and change in O.D. was monitored every after 30 sec. One unit of enzyme activity is defined, as that amount of enzyme required to convert 1 μmol of NADPH to NADP per minute at 25° C. […] For comparative kinetic studies, assay was performed at 50 μM NADPH and varying concentration of TS2 (20, 40, 60, 80 & 100) and at 50 μM TS2 and varying concentration of NADPH (20, 40, 60, 80, 100 & 150).

[2] = target: T2, recombinant Leishmania donovani Trypanothione Reductase (Leishmania donovani, UniProt P39050, S2A); experiment: Enzyme assay, kinetics and substrate specificity of recombinant purified trypanothione reductase; type: biochemical; details: for Km / Vmax: TS2 varied at 50 μM NADPH, NADPH varied at 50 μM TS2
T2 construct: GST (pET-41a vector fusion) (N, cleaved yes); made in house; host or cells: E. coli BL21(DE3), pET41a (clone LddTRpET41aDE3)
Protocol: Trypanothione reductase activity was routinely assayed spectrophotometrically at 340 nm, as previously described (25). The reaction mixture contained 20-100 mM HEPES pH 7.2-7.8, 20 μM-1 mM EDTA, 80-200 μM NADPH and 15-50 μM TS2. One unit of enzyme activity is defined as that amount of enzyme required to convert 1 μmol of NADPH to NADP per minute at 25° C. Protein was assayed according to the method of Bradford (1976) as supplied by Bangalore Genei with Bovine serum albumin as a standard. For comparative kinetic studies, assay was performed at 50 μM NADPH and at 5-100 μM concentrations of TS2 and at 50 μM TS2 and at 10-200 μM concentrations of NADPH.
Trypanothione reductase activity was routinely assayed spectrophotometrically at 340 nm, as previously described (25). The reaction mixture contained 100 mM HEPES pH 7.8, 20 μM EDTA, 80 μM NADPH and 50 μM TS2. The reaction was allowed to proceed for 5 min. and change in O.D. was monitored every after 30 sec. One unit of enzyme activity is defined, as that amount of enzyme required to convert 1 μmol of NADPH to NADP per minute at 25° C. The purified recombinant enzyme has a specific activity of 12.5 U/mg. protein. Purification procedure leads to 20 fold purification from the soluble content of E. coli lysate. The total yield was 16 mg/lit (FIG. 7 describes the fold purification of Recombinant Leishmania donovani Trypanothione Reductase). […] For comparative kinetic studies, assay was performed at 50 μM NADPH and varying concentration of TS2 (20, 40, 60, 80 & 100) and at 50 μM TS2 and varying concentration of NADPH (20, 40, 60, 80, 100 & 150).

**Q.** With `Nc1nc(N)nc(Nc2ccc([As]=O)cc2)n1` (centres unmarked) [Melarsen Oxide, Melarsen oxide] as the compound, how does the inhibition at 50 µM ([1]; read-out: Inhibition of TR) read?
**A.** > 95%

**Q.** Which Km [2] does the source give for `NC(=O)C1=CN([C@@H]2O[C@H](COP(=O)(O)OP(=O)(O)OC[C@H]3O[C@@H](n4cnc5c(N)ncnc54)[C@H](OP(=O)(O)O)[C@@H]3O)[C@@H](O)[C@H]2O)C=CC1` [NADPH, Nicotinidine adenine dinucleotide phosphate] here?
**A.** 20 µM

**Q.** And the Vmax [2]?
**A.** 125 μM/ml/min

**Q.** How did the “Effect on TR activity (in words)” value ([1]; studied at 50 and 100 μM concentration) turn out when `O.O.O.O=C([O-])[C@H]([O-])[C@@H]([O-])C(=O)[O-].O=C([O-])[C@H]([O-])[C@@H]([O-])C(=O)[O-].[K+].[K+].[Sb+3].[Sb+3]` [SbIII, Potassium antimony tartrate] was run?
**A.** profound effect on TR activity in comparison to SAG

**Q.** Which “Substrate specificity (reduction catalyzed by purified protein)” value [2] does the source give for `N[C@@H](CCC(=O)N[C@H]1CSSC[C@H](NC(=O)CC[C@H](N)C(=O)O)C(=O)NCC(=O)NCCCNCCCCNC(=O)CNC1=O)C(=O)O` [TS2, Oxidized Trypanothione] here?
**A.** specifically catalyzed reduction

**Q.** What about the Km [2] of the same compound?
**A.** 50 µM

**Q.** And the Vmax [2]?
**A.** 200 μM/ml/min

**Q.** How did the “Substrate specificity (reduction catalyzed by purified protein)” value [2] turn out when “Oxidised Glutathione [oxidized glutathione]” was run?
**A.** did not catalyze reduction
